In patent US20230102554A1 (GB002, INC., priority 2019, published 2023) one finds IC50 data, which are given here for 28 compounds.

Test [1] has as its target T1, Human PDGFRα, cytoplasmic domain (GST-PDGFRα) (Homo sapiens, UniProt P16234).
T1 construct: made in house
The experiment in a line: Human PDGFRα biochemical inhibition assay (off-chip Mobility Shift Assay).

The target of test [2] is T2, Human PDGFRβ, cytoplasmic domain (GST-PDGFRβ) (Homo sapiens, UniProt P09619).
T2 construct: made in house
The experiment in a line: Human PDGFRβ biochemical inhibition assay (off-chip Mobility Shift Assay). The procedure, abridged: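 GST-tagged cytoplasmic domain (aa 557-1106) from baculovirus was incubated 1 h at room temperature with compound, CSKtide, ATP at Km and Mg²⁺ in HEPES buffer, pH 7.5. Phosphorylated and unphosphorylated peptide were separated by off-chip mobility shift, and the product ratio P/(P+S) gave percent inhibition.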

Structures are written as SMILES.

T1 sequence (P16234 550-1089 T674I): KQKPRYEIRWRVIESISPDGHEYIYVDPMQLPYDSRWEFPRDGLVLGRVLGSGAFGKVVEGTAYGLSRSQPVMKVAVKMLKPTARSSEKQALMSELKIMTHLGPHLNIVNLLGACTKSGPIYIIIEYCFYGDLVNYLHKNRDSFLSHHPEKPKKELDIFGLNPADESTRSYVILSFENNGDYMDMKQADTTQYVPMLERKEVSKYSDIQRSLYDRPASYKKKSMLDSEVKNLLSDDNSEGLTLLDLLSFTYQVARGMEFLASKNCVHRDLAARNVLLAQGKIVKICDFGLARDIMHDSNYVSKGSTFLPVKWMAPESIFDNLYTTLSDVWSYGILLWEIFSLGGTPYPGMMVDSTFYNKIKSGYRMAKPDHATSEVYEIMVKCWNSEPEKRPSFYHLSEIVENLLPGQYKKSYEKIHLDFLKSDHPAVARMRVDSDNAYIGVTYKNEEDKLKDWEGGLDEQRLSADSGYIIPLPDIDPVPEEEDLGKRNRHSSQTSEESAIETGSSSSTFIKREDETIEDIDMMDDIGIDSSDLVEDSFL
T2 sequence (P09619 with tags, fused parts or gaps): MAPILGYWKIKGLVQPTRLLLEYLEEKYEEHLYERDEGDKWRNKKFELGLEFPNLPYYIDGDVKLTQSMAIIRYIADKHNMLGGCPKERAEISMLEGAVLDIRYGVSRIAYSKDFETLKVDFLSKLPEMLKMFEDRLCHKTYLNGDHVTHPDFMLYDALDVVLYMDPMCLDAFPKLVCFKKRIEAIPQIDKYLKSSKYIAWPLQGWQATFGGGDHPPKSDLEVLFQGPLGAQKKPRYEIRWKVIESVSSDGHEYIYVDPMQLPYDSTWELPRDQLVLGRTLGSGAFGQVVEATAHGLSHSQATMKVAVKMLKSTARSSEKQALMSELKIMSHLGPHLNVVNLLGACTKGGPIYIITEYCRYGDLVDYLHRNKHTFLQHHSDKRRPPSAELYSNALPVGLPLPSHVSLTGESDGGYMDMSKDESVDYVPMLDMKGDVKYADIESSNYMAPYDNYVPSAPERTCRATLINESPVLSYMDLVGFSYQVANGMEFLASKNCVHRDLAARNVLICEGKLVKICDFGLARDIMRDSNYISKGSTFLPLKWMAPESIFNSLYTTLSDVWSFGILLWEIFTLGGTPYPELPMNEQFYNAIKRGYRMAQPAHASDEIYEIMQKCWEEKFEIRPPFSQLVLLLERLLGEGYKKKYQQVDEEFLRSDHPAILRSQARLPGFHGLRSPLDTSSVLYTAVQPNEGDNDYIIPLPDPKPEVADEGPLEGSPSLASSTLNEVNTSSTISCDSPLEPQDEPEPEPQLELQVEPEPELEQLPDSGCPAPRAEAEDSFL

Turning to `Cc1cncc(C(=O)Nc2cccc([C@H](C)Nc3cnc4[nH]nc(C)c4n3)c2)c1` [Compound 16, (S)-5-methyl-N-(3-(1-((3-methyl-1H-pyrazolo[3,4-b]pyrazin-5-yl)amino)ethyl)phenyl)nicotinamide], the IC50 in test [1] and in test [2] was < 300 nM each time.

`CCn1cc2ncc(N[C@@H](C)c3cccc(NC(=O)c4ccc(CN5CC6(COC6)C5)c(C(F)F)c4)c3)nc2n1` [Compound 506, (S)-4-((2-oxa-6-azaspiro[3.3]heptan-6-yl)methyl)-3-(difluoromethyl)-N-(3-(1-((2-ethyl-2H-pyrazolo[3,4-b]pyrazin-6-yl)amino)ethyl)phenyl)benzamide]: the IC50 in test [1] and in test [2] was < 300 nM throughout.

As to `CCn1cc2ncc(N[C@@H](C)c3cccc(NC(=O)Nc4cncc(C)c4)c3)nc2n1` [Compound 732, (S)-1-(3-(1-((2-ethyl-2H-pyrazolo[3,4-b]pyrazin-6-yl)amino)ethyl)phenyl)-3-(5-methylpyridin-3-yl)urea], the IC50 in test [1] is < 300 nM; in test [2], 300 to 1000 nM.

In the case of `CCn1cc2ncc(N[C@@H](C)c3cc(NC(=O)Cc4ccc(F)c(C)n4)ccc3F)nc2n1` [Compound 674, (S)-N-(3-(1-((2-ethyl-2H-pyrazolo[3,4-b]pyrazin-6-yl)amino)ethyl)-4-fluorophenyl)-2-(5-fluoro-6-methylpyridin-2-yl) acetamide], the IC50 in test [1] and in test [2] was < 300 nM throughout.

For the compound `CCn1cc2ncc(N[C@@H](C)c3cccc(NC(=O)c4ccc(CN5CCN(C)CC5)c(C5CC5)c4)c3)nc2n1` [Compound 502, (S)-3-cyclopropyl-N-(3-(1-((2-ethyl-2H-pyrazolo[3,4-b]pyrazin-6-yl)amino)ethyl)phenyl)-4-((4-methylpiperazin-1-yl)methyl)benzamide], the IC50 in test [1] and in test [2] was < 300 nM throughout.

As to `CCn1cc2ncc(N[C@@H](C)c3cccc(NC(=O)c4ccc(CN5CCN(C)CC5)c(C(F)F)c4)c3)nc2n1` [Compound 504, (S)-3-(difluoromethyl)-N-(3-(1-((2-ethyl-2H-pyrazolo[3,4-b]pyrazin-6-yl)amino)ethyl)phenyl)-4-((4-methylpiperazin-1-yl)methyl)benzamide], the IC50 in test [1] and in test [2] was < 300 nM each time.

Consider `CCn1cc2ncc(N[C@@H](C)c3cccc(NC(=O)c4cnc(NC5CCOCC5)c(C)c4)c3)nc2n1` [Compound 351, (S)-N-(3-(1-((2-ethyl-2H-pyrazolo[3,4-b]pyrazin-6-yl)amino)ethyl)phenyl)-5-methyl-6-((tetrahydro-2H-pyran-4-yl)amino)nicotinamide], for which the IC50 in test [1] was 300 to 1000 nM; in test [2] it was ≥ 1000 nM.

As to `Cc1cncc(C(=O)Nc2cccc([C@H](C)Nc3cnc4cn(C)nc4n3)c2)c1` [Compound 274, (S)-5-methyl-N-(3-(1-((2-methyl-2H-pyrazolo[3,4-b]pyrazin-6-yl)amino)ethyl)phenyl)nicotinamide], the figures for the IC50 in test [1] and in test [2] were < 300 nM and ≥ 1000 nM, respectively.

Consider `CC(=O)Oc1ccc(C(=O)Nc2cccc([C@H](C)Nc3cnc4cnn(C)c4n3)c2)cc1` [Compound 214, (S)-4-((3-(1-((1-methyl-1H-pyrazolo[3,4-b]pyrazin-6-yl)amino)ethyl)phenyl)carbamoyl) phenyl acetate], for which the IC50 in test [1] and in test [2] was < 300 nM in each case.

As to `C[C@H](Nc1cnc2cnn(C)c2n1)c1cccc(NC(=O)c2cncc(C(F)F)c2)c1` [Compound 103, (S)-5-(difluoromethyl)-N-(3-(1-((1-methyl-1H-pyrazolo[3,4-b]pyrazin-6-yl)amino)ethyl)phenyl)nicotinamide], the IC50 in test [1] and in test [2] was < 300 nM each time.

For the compound `CCn1cc2ncc(N[C@@H](C)c3cccc(NC(=O)c4ccc(C=O)c(C)c4)c3)nc2n1` [Compound 401, (S)-N-(3-(1-((2-ethyl-2H-pyrazolo[3,4-b]pyrazin-6-yl)amino)ethyl)phenyl)-4-formyl-3-methylbenzamide], the IC50 in test [1] and in test [2] was < 300 nM in each case.

Consider `CCn1cc2ncc(N[C@@H](C)c3cccc(NC(=O)c4ccc(C(F)(F)F)c(OC)c4)c3)nc2n1` [Compound 440, (S)-N-(3-(1-((2-ethyl-2H-pyrazolo[3,4-b]pyrazin-6-yl)amino)ethyl)phenyl)-3-methoxy-4-(trifluoromethyl) benzamide], for which the IC50 in test [1] and in test [2] was < 300 nM throughout.

`CSc1cc(C(=O)Nc2cccc([C@H](C)Nc3cnc4cnn(C)c4n3)c2)ccc1Cl` [Compound 236, (S)-4-chloro-N-(3-(1-((1-methyl-1H-pyrazolo[3,4-b]pyrazin-6-yl)amino)ethyl)phenyl)-3-(methylthio)benzamide]: the IC50 in test [1] and in test [2] was < 300 nM each time.

For `Cc1cc(C(=O)Nc2cccc([C@H](C)Nc3cnc4cnn(C)c4n3)c2)cnc1C(F)(F)F` [Compound 125, (S)-5-methyl-N-(3-(1-((1-methyl-1H-pyrazolo[3,4-b]pyrazin-6-yl)amino)ethyl)phenyl)-6-(trifluoromethyl) nicotinamide], the IC50 in test [1] and in test [2] was < 300 nM each time.

`COc1ccc(-n2ccc3ncc(N[C@@H](C)c4cccc(NC(=O)c5cncc(C)c5)c4)cc32)cc1OC` [Compound 6, (S)—N-(3-(1-((1-(3,4-dimethoxyphenyl)-1H-pyrrolo[3,2-b]pyridin-6-yl)amino)ethyl)phenyl)-5-methylnicotinamide]: the figures for the IC50 in test [1] and in test [2] were < 300 nM and ≥ 1000 nM, respectively.

Turning to `CCn1cc2ncc(N[C@@H](C)c3cccc(NC(=O)c4cc(F)c(CN5CCCC5)c(Cl)c4)c3)nc2n1` [Compound 488, (S)-3-chloro-N-(3-(1-((2-ethyl-2H-pyrazolo[3,4-b]pyrazin-6-yl)amino)ethyl)phenyl)-5-fluoro-4-(pyrrolidin-1-ylmethyl) benzamide], the IC50 in test [1] and in test [2] was < 300 nM each time.

With `Cc1cncc(C(=O)Nc2cccc([C@H](C)Nc3cnc4cnn(-c5ccccn5)c4n3)c2)c1` [Compound 272, (S)-5-methyl-N-(3-(1-((1-(pyridin-2-yl)-1H-pyrazolo[3,4-b]pyrazin-6-yl)amino)ethyl)phenyl)nicotinamide], the IC50 in test [1] and in test [2] was < 300 nM each time.

As for `COc1cc(C(=O)Nc2cccc([C@H](C)Nc3cnc4cnn(C)c4n3)c2)cnc1OC` [Compound 205, (S)-5,6-dimethoxy-N-(3-(1-((1-methyl-1H-pyrazolo[3,4-b]pyrazin-6-yl)amino)ethyl)phenyl)nicotinamide], the half-inhibitory concentration (IC50) in test [1] and in test [2] was < 300 nM each time.

On to `CCn1cc2ncc(N[C@@H](C)c3cccc(NC(=O)c4ccc(Cl)c(C)c4)c3)nc2n1` [Compound 345, (S)-4-chloro-N-(3-(1-((2-ethyl-2H-pyrazolo[3,4-b]pyrazin-6-yl)amino)ethyl)phenyl)-3-methylbenzamide], for which the IC50 in test [1] and in test [2] was < 300 nM each time.

Turning to `CCn1cc2ncc(N[C@@H](C)c3cccc(NC(=O)c4ccc(C(F)(F)F)nc4)c3)nc2n1` [Compound 284, (S)-N-(3-(1-((2-ethyl-2H-pyrazolo[3,4-b]pyrazin-6-yl)amino)ethyl)phenyl)-6-(trifluoromethyl)nicotinamide], the IC50 in test [1] and in test [2] was 300 to 1000 nM in each case.

Consider `C[C@H](Nc1cnc2cnn(C)c2n1)c1cccc(NC(=O)c2cnc3ncn(C)c3c2)c1` [Compound 77, (S)-1-methyl-N-(3-(1-((1-methyl-1H-pyrazolo[3,4-b]pyrazin-6-yl)amino)ethyl)phenyl)-1H-imidazo[4,5-b] pyridine-6-carboxamide], for which the IC50 in test [1] is < 300 nM; in test [2], 300 to 1000 nM.

As for `CCn1cc2ncc(N[C@@H](C)c3cc(NC(=O)c4ccc(CN5CCN(C)CC5)c(Cl)c4)ccc3F)nc2n1` [Compound 429, (S)-3-chloro-N-(3-(1-((2-ethyl-2H-pyrazolo[3,4-b]pyrazin-6-yl)amino)ethyl)-4-fluorophenyl)-4-((4-methylpiperazin-1-yl)methyl)benzamide], the IC50 in test [1] and in test [2] was < 300 nM in each case.

Take `CCNc1ncc(C(=O)Nc2cccc([C@H](C)Nc3cnc4cn(CC)nc4n3)c2)s1` [Compound 364, (S)-N-(3-(1-((2-ethyl-2H-pyrazolo[3,4-b]pyrazin-6-yl)amino)ethyl)phenyl)-2-(ethylamino)thiazole-5-carboxamide]: the IC50 in test [1] was < 300 nM; in test [2], 300 to 1000 nM.

For `Cc1cncc(C(=O)Nc2cccc([C@H](C)Nc3cnc4c(c3)OCCN4)c2)c1` [Compound 45], the IC50 in test [1] is 300 to 1000 nM; in test [2], ≥ 1000 nM.

As to `CCn1cc2ncc(N[C@@H](C)c3cc(NC(=O)c4ccc(C(F)(F)F)nc4)ccc3C)nc2n1` [Compound 455, (S)-N-(3-(1-((2-ethyl-2H-pyrazolo[3,4-b]pyrazin-6-yl)amino)ethyl)-4-methylphenyl)-6-(trifluoromethyl)nicotinamide], the IC50 in test [1] and in test [2] was < 300 nM throughout.

As for `Cc1cc2ncc(N[C@@H](C)c3cc(NC(=O)c4ccc(C(F)(F)F)nc4)ccc3F)nc2o1` [Compound 614, (S)-N-(4-fluoro-3-(1-((6-methylfuro[2,3-b]pyrazin-3-yl)amino)ethyl)phenyl)-6-(trifluoromethyl)nicotinamide], the IC50 in test [1] and in test [2] was < 300 nM throughout.

As to `CCn1cc2ncc(N[C@@H](C)c3cc(NC(=O)Cc4ccc(C)cn4)ccc3C)nc2n1` [Compound 660, (S)-N-(3-(1-((2-ethyl-2H-pyrazolo[3,4-b]pyrazin-6-yl)amino)ethyl)-4-methylphenyl)-2-(5-methylpyridin-2-yl) acetamide], the IC50 in test [1] was < 300 nM; in test [2], 300 to 1000 nM.

As for `Cc1cncc(C(=O)Nc2cccc([C@H](C)Nc3cnc4[nH]cnc4n3)c2)c1` [Compound 23, (S)—N-(3-(1-((1H-imidazo[4,5-b]pyrazin-5-yl)amino)ethyl)phenyl)-5-methylnicotinamide], the IC50 in test [1] and in test [2] was 300 to 1000 nM in each case.

One may read the IC50 as the concentration that inhibits the measured activity by half.
